Data from article PMC5474674, “D-BMAP18 Antimicrobial Peptide Is Active In vitro, Resists to Pulmonary Proteases but Loses Its Activity in a Murine Model of Pseudomonas aeruginosa Lung Infection” (Frontiers in Chemistry, 2017).
Where a SMILES comes first, the peptide text is derived from it.

Assays:
[1] = cited from earlier work
Description: D-BMAP18 was synthesized to provide a molecule more resistant to enzymatic cleavage. The stability of D-BMAP18 was tested in murine BAL fluid.

P. aeruginosa RP73 = type: in vivo, mouse; conditions: 10 mg/kg intratracheal, day 1
Description: C57/Bl6NCrl mice (n = 8/group) were intratracheally challenged with 1 × 10^7 cells P. aeruginosa RP73 clinical strain, and 5 min later a single dose of D-BMAP18 at different concentrations (0.5, 1, and 2 mg/kg) was intratracheally administrated. Sterile distilled water alone or tobramycin [10 mg/kg] (Sigma-Aldrich S.r.l.), were used respectively as negative and positive control. […] Subsequently, lungs were homogenized (24,000 rpm) on ice in 1 ml of sterile PBS by using Ultra-Turrax T25-Basic homogenizer (IKA-Werke GmbH & Co. KG, Germany). Ten-fold serial dilutions of lung homogenates were plated on MH agar (Oxoid SpA), and the number of colony-forming units (CFU) was counted after incubation at 37°C for 24 h.

In the case of `CC(C)C[C@H](NC(=O)[C@H](CCCCN)NC(=O)[C@H](CCCCN)NC(=O)[C@H](Cc1ccccc1)NC(=O)[C@H](CC(C)C)NC(=O)[C@H](CCCCN)NC(=O)[C@H](CCCCN)NC(=O)[C@H](Cc1ccccc1)NC(=O)[C@H](CCCCN)NC(=O)[C@H](CCCCN)NC(=O)[C@H](CCCNC(=N)N)NC(=O)[C@H](Cc1ccccc1)NC(=O)[C@H](CCCNC(=N)N)NC(=O)[C@H](CCCCN)NC(=O)[C@H](Cc1ccccc1)NC(=O)[C@H](CCCNC(=N)N)NC(=O)CN)C(=O)N[C@@H](CO)C(N)=O` [L-BMAP18] (H-GRFKRFRKKFKKLFKKLS-NH2), the “degradation in murine BAL after 10 min” value [1] is listed as “most of the L-BMAP-18 was digested” and the “time within which peptide is degraded by pulmonary proteases in murine BAL” value [1] is listed as ≤ 20 min.
For `NC[C@H]1O[C@H](O[C@H]2[C@H](O)[C@@H](O[C@H]3O[C@H](CO)[C@@H](O)[C@H](N)[C@H]3O)[C@H](N)C[C@@H]2N)[C@H](N)C[C@@H]1O` [tobramycin], the “effect on bacterial load in murine lungs” value (P. aeruginosa RP73) was “weak effect” and the mortality (P. aeruginosa RP73; 1 out of 8 mice) was 12.5%.
